According to ChEMBL document CHEMBL3390836, “Mannich- and LedererManasse-based analogues of the natural product S-(+)-curcuphenol as cancer proliferation and migration inhibitors” (Medchemcomm, 2012):

Key:
Format in all cases: functional
A549 = assay: Cytotoxicity against human A549 cells assessed as cell growth at 10^-4 M after 48 hrs by SRB assay relative to control; conditions: A549, 48 h, read-out: Activity
MCF7 = assay: Cytotoxicity against human MCF7 cells after 48 hrs by SRB assay; conditions: MCF7, 48 h; for CC50: read-out: LC50 (the source's name)
SK-MEL-5 = assay: Cytotoxicity against human SK-MEL-5 cells assessed as cell growth at 10^-7 M after 48 hrs by SRB assay relative to control; conditions: SK-MEL-5, 48 h, read-out: Activity
MDA-MB-231 = assay: Cytotoxicity against human MDA-MB-231 cells after 48 hrs by SRB assay; conditions: MDA-MB-231, 48 h
SF-295 [1] = assay: Cytotoxicity against human SF295 cells assessed as cell growth at 10^-7 M after 48 hrs by SRB assay relative to control; conditions: SF-295, 48 h, read-out: Activity
[2] = Cytotoxicity against human OVCAR8 cells assessed as cell growth at 10^-7 M after 48 hrs by SRB assay relative to control; conditions: OVCAR-8, 48 h, read-out: Activity
[3] = Cytotoxicity against human PC3 cells assessed as cell growth at 10^-6 M after 48 hrs by SRB assay relative to control; conditions: PC-3, 48 h, read-out: Activity
NCI-H322M = assay: Cytotoxicity against human NCI-H322M cells assessed as cell growth at 10^-6 M after 48 hrs by SRB assay relative to control; conditions: read-out: Activity
SNB-19 = assay: Cytotoxicity against human SNB19 cells assessed as cell growth at 10^-8 M after 48 hrs by SRB assay relative to control; conditions: SNB-19, 48 h, read-out: Activity
M14 [4] = assay: Cytotoxicity against human M14 cells assessed as cell growth at 10^-6 M after 48 hrs by SRB assay relative to control; conditions: M14, 48 h, read-out: Activity
K562 = assay: Cytotoxicity against human K562 cells assessed as cell growth at 10^-7 M after 48 hrs by SRB assay relative to control; conditions: K562, 48 h, read-out: Activity
786-0 = assay: Cytotoxicity against human 786-0 cells assessed as cell growth at 10^-6 M after 48 hrs by SRB assay relative to control; conditions: 786-0, 48 h, read-out: Activity
HCC 2998 = assay: Cytotoxicity against human HCC2998 cells assessed as cell growth at 10^-4 M after 48 hrs by SRB assay relative to control; conditions: HCC 2998, 48 h, read-out: Activity
CCRF-CEM = assay: Cytotoxicity against human CCRF-CEM cells after 48 hrs by SRB assay; conditions: read-out: LC50 (the source's name)
T47D = assay: Cytotoxicity against human T47D cells after 48 hrs by SRB assay
COLO 205 = assay: Cytotoxicity against human COLO205 cells assessed as cell growth at 10^-7 M after 48 hrs by SRB assay relative to control; conditions: COLO 205, 48 h, read-out: Activity
[5] = Cytotoxicity against human Hs 578T cells assessed as cell growth at 10^-8 M after 48 hrs by SRB assay relative to control; conditions: read-out: Activity
M14 [6] = assay: Cytotoxicity against human M14 cells assessed as cell growth at 10^-7 M after 48 hrs by SRB assay relative to control; conditions: M14, 48 h, read-out: Activity
[7] = Cytotoxicity against human UACC62 cells after 48 hrs by SRB assay; conditions: UACC-62, 48 h
[8] = Cytotoxicity against human OVCAR8 cells assessed as cell growth at 10^-6 M after 48 hrs by SRB assay relative to control; conditions: OVCAR-8, 48 h, read-out: Activity
DU-145 = assay: Cytotoxicity against human DU145 cells assessed as cell growth at 10^-7 M after 48 hrs by SRB assay relative to control; conditions: DU-145, 48 h, read-out: Activity
[9] = Cytotoxicity against human EKVX cells assessed as cell growth at 10^-6 M after 48 hrs by SRB assay relative to control; conditions: read-out: Activity
SNB-75 = assay: Cytotoxicity against human SNB75 cells assessed as cell growth at 10^-7 M after 48 hrs by SRB assay relative to control; conditions: SNB-75, 48 h, read-out: Activity
RXF 393 = assay: Cytotoxicity against human RXF393 cells assessed as cell growth at 10^-4 M after 48 hrs by SRB assay relative to control; conditions: RXF 393, 48 h, read-out: Activity
M14 [10] = assay: Cytotoxicity against human M14 cells assessed as cell growth at 10^-8 M after 48 hrs by SRB assay relative to control; conditions: M14, 48 h, read-out: Activity
SF-295 [11] = assay: Cytotoxicity against human SF295 cells after 48 hrs by SRB assay; conditions: SF-295, 48 h; for CC50: read-out: LC50 (the source's name)
M14 [12] = assay: Cytotoxicity against human M14 cells assessed as cell growth at 10^-4 M after 48 hrs by SRB assay relative to control; conditions: M14, 48 h, read-out: Activity
A498 = assay: Cytotoxicity against human A498 cells assessed as cell growth at 10^-6 M after 48 hrs by SRB assay relative to control; conditions: A498, 48 h, read-out: Activity
SK-MEL-2 = assay: Cytotoxicity against human SK-MEL-2 cells assessed as cell growth at 10^-6 M after 48 hrs by SRB assay relative to control; conditions: SK-MEL-2, 48 h, read-out: Activity
CAKI-1 = assay: Cytotoxicity against human Caki1 cells assessed as cell growth at 10^-4 M after 48 hrs by SRB assay relative to control; conditions: CAKI-1, 48 h, read-out: Activity
[13] = Cytotoxicity against human PC3 cells after 48 hrs by SRB assay; conditions: PC-3, 48 h
HOP-62 = assay: Cytotoxicity against human HOP62 cells after 48 hrs by SRB assay; conditions: HOP-62, 48 h
NCI-H522 [14] = assay: Cytotoxicity against human NCI-H522 cells assessed as cell growth at 10^-7 M after 48 hrs by SRB assay relative to control; conditions: NCI-H522, 48 h, read-out: Activity
NCI-H522 [15] = assay: Cytotoxicity against human NCI-H522 cells assessed as cell growth at 10^-4 M after 48 hrs by SRB assay relative to control; conditions: NCI-H522, 48 h, read-out: Activity
SR = assay: Cytotoxicity against human SR cells assessed as cell growth at 10^-7 M after 48 hrs by SRB assay relative to control; conditions: read-out: Activity
[16] = Cytotoxicity against human Hs 578T cells assessed as cell growth at 10^-7 M after 48 hrs by SRB assay relative to control; conditions: read-out: Activity
MOLT-4 = assay: Cytotoxicity against human MOLT4 cells assessed as cell growth at 10^-4 M after 48 hrs by SRB assay relative to control; conditions: MOLT-4, 48 h, read-out: Activity

COc1ccc(CCN2COc3c([C@@H](C)CCC=C(C)C)ccc(C)c3C2)cc1OC
growth at 100 µM (A549): -52%
GI50 (MCF7): 3.29 µM
TGI (MCF7): 11 µM
CC50 (MCF7): 36.3 µM
growth at 0.1 µM (SK-MEL-5): 91%
GI50 (MDA-MB-231): 2.76 µM
LC50 (MDA-MB-231): 34.5 µM
TGI (MDA-MB-231): 9.37 µM
growth at 0.1 µM (SF-295 [1]): 92%
growth at 0.1 µM [2]: 95%
growth at 1 µM [3]: 81%
growth at 1 µM (NCI-H322M): 92%
growth at 0.01 µM (SNB-19): 99%
growth at 1 µM (M14 [4]): 92%
growth at 0.1 µM (K562): 95%
growth at 1 µM (786-0): 96%
growth at 100 µM (HCC 2998): -100%
CC50 (CCRF-CEM): > 100 µM
GI50 (T47D): 1.78 µM
LC50 (concentration killing 50% of cells) (T47D): 8.12 µM
TGI (T47D): 3.8 µM
growth at 0.1 µM (COLO 205): 103%
growth at 0.01 µM [5]: 78%
growth at 0.1 µM (M14 [6]): 97%
GI50 [7]: 3.48 µM
LC50 (concentration killing 50% of cells) [7]: 38.7 µM
TGI [7]: 14.6 µM
growth at 1 µM [8]: 94%
growth at 0.1 µM (DU-145): 94%
growth at 1 µM [9]: 91%
growth at 0.1 µM (SNB-75): 86%
growth at 100 µM (RXF 393): -92%
growth at 0.01 µM (M14 [10]): 95%
GI50 (SF-295 [11]): 2.02 µM
TGI (SF-295 [11]): 6.56 µM
CC50 (SF-295 [11]): 29 µM
growth at 100 µM (M14 [12]): -100%
growth at 1 µM (A498): 68%
growth at 1 µM (SK-MEL-2): 94%
growth at 100 µM (CAKI-1): -86%
GI50 [13]: 1.95 µM
LC50 [13]: 49.3 µM
TGI [13]: 5.83 µM
GI50 (HOP-62): 1.86 µM
LC50 (HOP-62): 7.05 µM
TGI (HOP-62): 36.2 µM

CC(C)=CCC[C@H](C)c1ccc(C)c(CNCC2CCNCC2)c1O
GI50 (MCF7): 4.5 µM
TGI (MCF7): 8.34 µM
CC50 (MCF7): 15.5 µM
growth at 0.1 µM (SK-MEL-5): 90%
GI50 (MDA-MB-231): 3.48 µM
LC50 (MDA-MB-231): 19.3 µM
TGI (MDA-MB-231): 8.19 µM
growth at 0.1 µM (SF-295 [1]): 91%
growth at 0.1 µM [2]: 104%
growth at 0.1 µM (NCI-H522 [14]): 96%
growth at 1 µM [3]: 101%
growth at 100 µM (NCI-H522 [15]): 9%
growth at 1 µM (NCI-H322M): 99%
growth at 0.01 µM (SNB-19): 92%
growth at 0.1 µM (K562): 99%
growth at 1 µM (786-0): 85%
growth at 100 µM (HCC 2998): -94%
CC50 (CCRF-CEM): 1.64 µM
GI50 (T47D): 4.33 µM
LC50 (concentration killing 50% of cells) (T47D): 18.1 µM
TGI (T47D): 8.86 µM
growth at 0.1 µM (COLO 205): 101%
growth at 0.01 µM [5]: 94%
GI50 [7]: 4.24 µM
LC50 (concentration killing 50% of cells) [7]: 16.4 µM
TGI [7]: 8.32 µM
growth at 1 µM [8]: 100%
growth at 0.1 µM (DU-145): 96%
growth at 1 µM [9]: 92%
growth at 0.1 µM (SR): 84%
growth at 0.1 µM (SNB-75): 90%
growth at 100 µM (RXF 393): -24%
growth at 0.1 µM [16]: 91%
GI50 (SF-295 [11]): 3.31 µM
TGI (SF-295 [11]): 7.53 µM
CC50 (SF-295 [11]): 17.1 µM
growth at 100 µM (MOLT-4): -22%
growth at 1 µM (A498): 79%
growth at 1 µM (SK-MEL-2): 116%
growth at 100 µM (CAKI-1): -29%
GI50 [13]: 6.88 µM
LC50 [13]: > 25 µM
TGI [13]: > 25 µM
GI50 (HOP-62): 4.12 µM
LC50 (HOP-62): 17.6 µM
TGI (HOP-62): 8.5 µM

CC(C)=CCC[C@H](C)c1ccc(C)c2c1OCN(CC1CCNCC1)C2
growth at 100 µM (A549): -84%
GI50 (MCF7): 6.15 µM
TGI (MCF7): 18.7 µM
CC50 (MCF7): 45.2 µM
growth at 0.1 µM (SK-MEL-5): 88%
GI50 (MDA-MB-231): 12.5 µM
LC50 (MDA-MB-231): 64.1 µM
TGI (MDA-MB-231): 28.3 µM
growth at 0.1 µM (SF-295 [1]): 94%
growth at 0.1 µM [2]: 101%
growth at 0.1 µM (NCI-H522 [14]): 88%
growth at 1 µM [3]: 103%
growth at 100 µM (NCI-H522 [15]): -84%
growth at 1 µM (NCI-H322M): 108%
growth at 0.01 µM (SNB-19): 95%
growth at 1 µM (M14 [4]): 114%
growth at 0.1 µM (K562): 99%
growth at 1 µM (786-0): 99%
growth at 100 µM (HCC 2998): -94%
GI50 (T47D): 15.2 µM
LC50 (concentration killing 50% of cells) (T47D): 72.8 µM
TGI (T47D): 33.2 µM
growth at 0.1 µM (COLO 205): 108%
growth at 0.01 µM [5]: 98%
growth at 0.1 µM (M14 [6]): 99%
GI50 [7]: 15.5 µM
LC50 (concentration killing 50% of cells) [7]: 57.6 µM
TGI [7]: 29.9 µM
growth at 1 µM [8]: 100%
growth at 0.1 µM (DU-145): 94%
growth at 1 µM [9]: 94%
growth at 0.1 µM (SR): 98%
growth at 0.1 µM (SNB-75): 85%
growth at 100 µM (RXF 393): -93%
growth at 0.1 µM [16]: 102%
growth at 0.01 µM (M14 [10]): 96%
GI50 (SF-295 [11]): 15.9 µM
TGI (SF-295 [11]): 34.9 µM
CC50 (SF-295 [11]): 76.5 µM
growth at 100 µM (M14 [12]): -80%
growth at 100 µM (MOLT-4): -39%
growth at 1 µM (A498): 102%
growth at 1 µM (SK-MEL-2): 120%
growth at 100 µM (CAKI-1): -69%
GI50 [13]: 16.5 µM
LC50 [13]: > 100 µM
TGI [13]: 42.1 µM
GI50 (HOP-62): 14.8 µM
LC50 (HOP-62): 55.6 µM
TGI (HOP-62): 28.7 µM
